Patent publication US6933287B1, “Dramatic simplification of a method to treat neoplastic disease by radiation” (priority 1999, dated 2005)

Legend:
[1] = Half life of CldC with H4U in mice; format: in vivo; settings: effect of H4U
Excerpt: (§1) Furthermore, CldC plus H4U was not toxic to dogs or monkeys. In monkeys and mice, H4U increased the half life of CldC. This is a very important indicator of the efficacy of CldC plus H4U in the treatment of diseases, in particular tumors in humans.

[2] = Half life of CldC with H4U in monkeys; format: in vivo; settings: effect of H4U
Excerpt: as §1

thymidylate synthetase [3] = target: T1, thymidylate synthetase (Lacticaseibacillus casei, UniProt P00469); settings: cited from earlier work
thymidylate synthetase [4] = target: T1, thymidylate synthetase; settings: read-out: Ki for the inhibition of thymidylate synthetase; cited from earlier work
[5] = system: radiation induced fibrosarcoma, RIF-1; settings: toxic doses of CldC; cited from earlier work

T1 sequence (P00469 whole entry): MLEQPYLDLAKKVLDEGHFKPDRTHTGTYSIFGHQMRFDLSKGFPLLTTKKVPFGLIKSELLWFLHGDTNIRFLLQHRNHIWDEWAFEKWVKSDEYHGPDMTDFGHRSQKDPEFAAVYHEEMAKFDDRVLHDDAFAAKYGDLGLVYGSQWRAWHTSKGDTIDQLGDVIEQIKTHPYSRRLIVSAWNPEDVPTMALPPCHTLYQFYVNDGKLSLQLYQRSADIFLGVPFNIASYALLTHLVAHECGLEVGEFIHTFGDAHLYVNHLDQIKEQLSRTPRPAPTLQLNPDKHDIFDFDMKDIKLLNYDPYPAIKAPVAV

| SMILES | Ki (thymidylate synthetase [4]) [nM] | also measured |
| --- | --- | --- |
| O=C1NC(O)CCN1[C@@H]1O[C@H](CO)[C@@H](O)[C@H]1O (some centres unmarked) [H4U, tetrahydrouridine] | – | half life of CldC [1]: increased; half life of CldC [2]: increased |
| O=c1[nH]c(=O)n([C@H]2C[C@H](O)[C@@H](COP(=O)(O)O)O2)cc1Cl [CldUMP] | 190 | dehalogenation by thymidylate synthetase (thymidylate synthetase [3]): not dehalogenated |
| O=c1[nH]c(=O)n([C@H]2C[C@H](O)[C@@H](COP(=O)(O)O)O2)cc1I [IdUMP] | 1600 | – |
| O=c1[nH]c(=O)n([C@H]2C[C@H](O)[C@@H](COP(=O)(O)O)O2)cc1F [FdUMP] | 15 | – |
| O=c1[nH]c(=O)n([C@H]2C[C@H](O)[C@@H](COP(=O)(O)O)O2)cc1Br [BrdUMP] | 1400 | – |
| Nc1nc(=O)n([C@H]2C[C@H](O)[C@@H](CO)O2)cc1Cl [CldC, 5-chloro-2′-deoxycytidine] | – | dose enhancement ratio [5]: 1.6 |
